# Target: Prothrombin (Homo sapiens, UniProt P00734)
# Experiment: Binding affinity was determined against human thrombin
row,Structure (SMILES),Ki [nM]
1,CN(C(=O)[C@H](Cc1ccc(C(N)NN)cc1)NS(=O)(=O)c1cccc2ccccc12)C1CCCC1 (stereo partly specified),8
2,CN(C(=O)[C@H](Cc1ccc(C(N)NN)cc1)NS(=O)(=O)Cc1ccccc1)C1CCCC1 (stereo partly specified),18.4
3,CN(C)c1cccc2c(S(=O)(=O)N[C@@H](Cc3ccc(C(N)NN)cc3)C(=O)N(C)C3CCCC3)cccc12 (stereo partly specified),0.3
4,CN(C(=O)[C@H](Cc1ccc(C(N)NN)cc1)NS(=O)(=O)c1ccc2c(c1)CCCC2)C1CCCC1 (stereo partly specified),0.12
5,CN(C(=O)[C@H](Cc1ccc(C(N)NN)cc1)NS(=O)(=O)c1cccc2c1CCCC2)C1CCCC1 (stereo partly specified),3.8
6,CN(C(=O)[C@H](Cc1ccc(C(N)NN)cc1)NS(=O)(=O)c1ccc2c(c1)CCCCC2)C1CCCC1 (stereo partly specified),0.045
7,CCOC(=O)N1CCN(C(=O)[C@H](Cc2ccc(C(N)NN)cc2)NS(=O)(=O)c2ccc3ccccc3c2)CC1 (stereo partly specified),3300
8,CN(C(=O)[C@H](Cc1ccc(CCN)cc1)NS(=O)(=O)c1ccc2ccccc2c1)C1CCCC1,3.3
9,CN(C(=O)[C@H](Cc1ccc(C(N)NN)cc1)NS(=O)(=O)c1ccc2cc3ccccc3cc2c1)C1CCCC1 (stereo partly specified),0.1
10,CS(=O)(=O)N1CCN(C(=O)[C@H](Cc2ccc(C(N)NN)cc2)NS(=O)(=O)c2ccc3ccccc3c2)CC1 (stereo partly specified),11
11,CN(C(=O)[C@H](Cc1ccc(C(N)NN)cc1)NS(=O)(=O)c1ccc2ccccc2c1)C1CCCC1 (stereo partly specified),0.38

# Target: Prothrombin (Bos taurus, UniProt P00735)
# Experiment: Binding affinity was determined against bovine thrombin.
row,Structure (SMILES),Ki [nM]
1,CCCCN(C)C(=O)[C@H](Cc1ccc(C(N)NN)cc1)NS(=O)(=O)c1ccc2ccccc2c1 (stereo partly specified),41
2,NNC(N)c1ccc(C[C@H](NS(=O)(=O)c2ccc3ccccc3c2)C(=O)N2CCCCCC2)cc1 (stereo partly specified),1.5
3,NNC(N)c1ccc(C[C@@H](NC(=O)CNS(=O)(=O)c2ccc3ccccc3c2)C(=O)N2CCCCC2)cc1 (stereo partly specified),4320
4,CN(C(=O)[C@H](Cc1ccc(C(N)NN)cc1)NS(=O)(=O)c1ccc2ccccc2c1)C1CCCCC1 (stereo partly specified),152
5,NC(N)c1ccc(C[C@H](NS(=O)(=O)c2ccc3ccccc3c2)C(=O)N2CCCCCC2)cc1,52.4
6,CN(C(=O)[C@H](Cc1ccc(C(N)NN)cc1)NS(=O)(=O)c1ccc2ccccc2c1)C1CC1 (stereo partly specified),247
7,CNC(N)c1ccc(C[C@H](NS(=O)(=O)c2ccc3ccccc3c2)C(=O)N2CCCCCC2)cc1 (stereo partly specified),45.5
8,NC(N)c1ccc(C[C@@H](NC(=O)CNS(=O)(=O)c2ccc3ccccc3c2)C(=O)N2CCCCC2)cc1,6.5
9,CN(C(=O)[C@H](Cc1ccc(C(N)NN)cc1)NS(=O)(=O)c1ccc2ccccc2c1)C1CCCC1 (stereo partly specified),1.1
10,CNC(N)c1ccc(C[C@@H](NC(=O)CNS(=O)(=O)c2ccc3ccccc3c2)C(=O)N2CCCCC2)cc1 (stereo partly specified),5370

# Reference: ChEMBL document CHEMBL1134382, “Estimation of binding affinities for selective thrombin inhibitors via Monte Carlo simulations” (J Med Chem, 2001)
